Values joined by “and” are separate entries in the source; they are usually repeats but may differ in a detail not shown here. Identical values can stand only once. Like-named read-outs stand apart in the source and are kept apart here.
How the values were obtained:
[1] = system: peridural space / spinal roots of dogs (digital pain, scrotal pain, weight support); type: in vivo, Mature male beagles
rat sciatic nerve = type: in vivo, Female Charles River rats
[2] = system: sheep (anal, vulv.-scrotal and digital pain); type: in vivo; settings: Compound C alone 1%
[3] = system: outward potassium current; settings: voltage-clamped giant axon; cited from earlier work
[4] = system: inward initial sodium current; settings: voltage-clamped giant axon; cited from earlier work
[5] = alone: S 0.75%, T 1%, bupivicaine 0.5%, epinephrine 1:100,000, 5 ml
[6] = 5 ml, epinephrine 1:100,000, lidocaine 2%
[7] = 5 ml, epinephrine 1:100,000, lidocaine 2%, saxitoxin 4 μg/ml
[8] = local anesthetic alone: lidocaine 2.0%, dibucaine 0.125%, procaine 2.0%, no epinephrine
[9] = local anesthetic alone: lidocaine 2.0%, dibucaine 0.125%, procaine 2.0%, no epinephrine, approximate
[10] = compound alone 1.0%, no vasoconstrictor
[11] = 1:100,000 epinephrine, procaine 1%, saxitoxin 1 μg/ml
[12] = compound alone 0.5%, no vasoconstrictor
[13] = local anesthetic alone 0.25%, no vasoconstrictor

## CCCC(C(=O)Nc1c(C)cccc1C)N(CC)CC (stereo not shown) [T, 2-Diethylamino-2',6'-valeroxylidide]
[1]; [5]
  Duration of block of Digital Pain: 301 (238-365) min.
  Duration of block of Scrotal Pain: 202 (185-218) min.

## CCN(CC)CC(=O)Nc1c(C)cccc1C [Lidocaine, lidocaine]
[1]; [6]
  Duration: mean, Weight Support: 137 min
  Duration: range, Weight Support: 108 to 162 min
[1]; [7]
  Duration: mean, Digital Pain: 127 min
  Duration: mean, Scrotal Pain: 111 min
  Duration: range, Digital Pain: 72 to 162 min
  Duration: range, Scrotal Pain: 62 to 152 min
  Onset: mean, Digital Pain: 7 min
  Onset: mean, Scrotal Pain: 8 min
  Onset: mean, Weight Support: 5 min
  Onset: range, Digital Pain: 5 to 13 min
  Onset: range, Scrotal Pain: 5 to 13 min
  Onset: range, Weight Support: 3 to 6 min
[1]; Table III footnote
  Duration (salient points, in words): short
  Frequency (salient points, in words): good
Rat sciatic nerve; [8]
  Duration of complete block, mean ± standard deviation: 141 ± 28 min
  Frequency of complete block (C): 5/5
Rat sciatic nerve; [9]
  Onset: 1 min

## CCCN(CC(=O)Nc1c(C)cccc1C)C(C)(C)CC [Compound C, 2-(N-n-Propyl-tert. amylamino)-2',6'-acetoxylidide]
[2]
  Duration of block of Digital Pain: 45 to 60 min
  Onset time: 5 to 10 min
[1]; C alone 1%, 10 ml, epinephrine 1:100,000, 2 animals
  Duration of block of Scrotal Pain: 192 min and 251 min

## Cc1cccc(C)c1NC(=O)CNC1CCC1 [Compound K, 2-Cyclobutylamino-2',6'-acetoxylidide]
Rat sciatic nerve; [10]
  Frequency: 6/6

## CCCCOc1cc(C(=O)NCCN(CC)CC)c2ccccc2n1 [Dibucaine, dibucaine]
Rat sciatic nerve; [8]
  Duration of complete block, mean ± standard deviation: 170 ± 33 min
  Frequency of complete block (C): 5/5
Rat sciatic nerve; [9]
  Onset: 4 min

## CCCCN1CCCCC1C(=O)Nc1c(C)cccc1C (stereo not shown) [Bupivicaine, bupivacaine]
[1]; [5]
  Duration of block of Digital Pain: 232 to 269 min
  Duration of block of Scrotal Pain: 94 min and 139 min
[1]; alone: S 0.75%, T 1%, bupivicaine 0.5%, epinephrine 1:100,000, 5 ml, listed as bupivicaine
  Duration of block of Scrotal Pain: about 94 min.

## CCN(CC)CCOC(=O)c1ccc(N)cc1 [Procaine, procaine]
[3]
  Effect on outward potassium current (in words): reduce
[4]
  Effect on inward (initial) sodium current (in words): reduce
Rat sciatic nerve; [11]
  Duration, mean ± standard deviation: 104 ± 15 min
  Frequency: 100%
  Onset: 2 min
Rat sciatic nerve; [8]
  Duration of complete block, mean ± standard deviation: 99 ± 8 min
  Frequency of complete block (C): 5/5
Rat sciatic nerve; [9]
  Onset: 1 min

## CCC(C)N(CC)CC(=O)Nc1c(C)cccc1C (stereo not shown) [Compound P, 2-(N-Ethyl-sec. butylamino)-2',6'-acetoxylidide]
Rat sciatic nerve; Example 5, STX 2 μg/ml in combinations
  Frequency (in words): poor
Rat sciatic nerve; [12]
  Duration, mean ± S.D.: 45 min
  Frequency: 2/6

## COC(=O)[C@H]1[C@@H](OC(=O)c2ccccc2)C[C@@H]2CC[C@H]1N2C [cocaine]
[3]
  Effect on outward potassium current (in words): reduce
[4]
  Effect on inward (initial) sodium current (in words): reduce

## Cc1cccc(C)c1NC(=O)C(C)N (stereo not shown) [Q, 2-Amino-2',6'-propionoxylidide]
Rat sciatic nerve; [12]
  Frequency: 4/6
Rat sciatic nerve; [10]
  Duration, mean ± S.D.: 79 ± 19 min
  Frequency: 5/6

## CCCN(CC)C(CC)C(=O)Nc1c(C)cccc1C (stereo not shown) [S, 2-(N-Ethyl-n-propylamino)-2',6'-butyroxylidide]
[1]; [5]
  Duration of block of Digital Pain: 151 (77-256) min.
  Duration of block of Scrotal Pain: 128 (82-173) min.

## CCNCC(=O)Nc1c(C)cccc1C [J, 2-Ethylamino-2',6'-acetoxylidide]
Rat sciatic nerve; [10]
  Frequency: 6/6

## CCCOc1ccc(C(=O)CCN2CCCCC2)cc1 [Falicain, falicain]
Rat sciatic nerve; [13]
  Duration, mean ± S.D.: 94 ± 21 min
  Frequency: 5/5
Rat sciatic nerve; local anesthetic alone 0.25%, no vasoconstrictor, listed as falicain
  Duration, mean ± S.D.: about 94 min.

## CCCCOc1ccc(OCCCN2CCOCC2)cc1 [Pramoxine, pramoxine]
Rat sciatic nerve; Example 5, STX 2 μg/ml or pramoxine 0.25% alone
  Anesthetic effect (in words): no anesthetic effect whatever was observed
Rat sciatic nerve; [13]
  Duration, mean ± S.D.: 0 min
  Frequency: 0/5

## CCC(C)(C)NCC(=O)Nc1c(C)cccc1C [L, 2-tert. Amylamino-2',6'-acetoxylidide]
Rat sciatic nerve; [12]
  Frequency: 6/6
Rat sciatic nerve; [10]
  Duration, mean ± S.D.: 101 ± 8 min
  Frequency: 6/6

## CCCCN(C)CC(=O)Nc1c(C)cccc1C [M, 2-(N-Methyl-n-butylamino)-2',6'-acetoxylidide]
Rat sciatic nerve; [10]
  Frequency: 5/6

## Cc1cccc(C)c1NC(=O)CN(C)C [H, 2-Dimethylamino-2'-6'-acetoxylidide]
Rat sciatic nerve; [12]
  Frequency: 5/6
Rat sciatic nerve; [10]
  Duration, mean ± S.D.: 76 ± 12 min
  Frequency: 6/6

Reference: US3957996A (priority 1973, dated 1976)
